Source: patent publication US5462954A, “Substituted phenyl phenol leukotriene antagonists” (Eli Lilly and Company, priority 1994, dated 1995)
Counter-ions that a name gives are not always drawn.

Assays:
[1] = biological target: T1, human cytosolic phospholipase A2 (PLA2) (Homo sapiens, UniProt P47712); test: in vitro inhibition of human cytosolic phospholipase A2 (PLA2); type: biochemical
T1 sequence (P47712 1-749): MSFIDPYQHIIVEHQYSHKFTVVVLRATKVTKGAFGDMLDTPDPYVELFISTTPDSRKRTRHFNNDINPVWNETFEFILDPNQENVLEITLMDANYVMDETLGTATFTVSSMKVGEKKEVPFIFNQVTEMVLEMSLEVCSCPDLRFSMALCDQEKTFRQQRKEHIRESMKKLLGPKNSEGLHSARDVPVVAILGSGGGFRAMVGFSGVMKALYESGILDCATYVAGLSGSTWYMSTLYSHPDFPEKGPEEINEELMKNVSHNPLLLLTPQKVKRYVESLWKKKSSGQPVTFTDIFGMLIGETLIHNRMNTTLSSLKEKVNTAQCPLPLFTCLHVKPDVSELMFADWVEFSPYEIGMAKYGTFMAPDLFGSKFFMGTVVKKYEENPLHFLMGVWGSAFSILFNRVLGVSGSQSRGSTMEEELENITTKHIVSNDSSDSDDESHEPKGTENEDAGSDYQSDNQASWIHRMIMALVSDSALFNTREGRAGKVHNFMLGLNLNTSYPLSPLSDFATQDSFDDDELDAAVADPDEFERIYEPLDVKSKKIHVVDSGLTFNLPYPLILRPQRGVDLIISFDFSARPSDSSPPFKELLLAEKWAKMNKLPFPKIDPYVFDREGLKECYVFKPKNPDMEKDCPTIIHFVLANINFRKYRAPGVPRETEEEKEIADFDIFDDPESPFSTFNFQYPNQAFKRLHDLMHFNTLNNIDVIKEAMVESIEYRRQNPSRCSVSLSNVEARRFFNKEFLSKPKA

[2] = biological target: binding of tritiated LTB4 to guinea pig lung membranes (Cavia porcellus, UniProt H0VYV8); test: biochemical; conditions: read-out: pKi (mean -log Ki) (converted)
Description: The effectiveness of compounds of Formula I to inhibit the binding of tritiated LTB4 to guinea pig lung membranes was determined as follows.
The binding reaction was terminated by the addition of 1 mL ice cold wash buffer (25 mM Tris-HCl, pH 7.5) followed immediately by vacuum filtration over Whatman GF/C glass fiber filters using a Brandel (Gaithersburg, Md.) 48 place harvester. The filters were washed three times with 1 mL of wash buffer. Retained radioactivity was determined by liquid scintillation counting at 50% counting efficiency using Ready Protein Plus cocktail (Beckman, Fullerton, Calif.). Nondisplaceable binding was determined in the presence of 1 μM LTB4 and was usually less than 10% of total binding. […] The data reported below is the mean -log Ki, otherwise known as the pKi, for n experiments.

[3] = biological target: T2, human synovial phospholipase A2 (PLA2) (Homo sapiens, UniProt P14555); test: in vitro inhibition of human synovial phospholipase A2 (PLA2); type: biochemical
T2 sequence (P14555 21-144): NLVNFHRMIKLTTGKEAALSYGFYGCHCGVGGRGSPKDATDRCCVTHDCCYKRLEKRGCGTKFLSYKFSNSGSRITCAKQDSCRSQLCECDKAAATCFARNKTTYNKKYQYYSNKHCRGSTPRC

binding of tritiated LTB4 to guinea pig lung membranes, sequence (H0VYV8 1-348): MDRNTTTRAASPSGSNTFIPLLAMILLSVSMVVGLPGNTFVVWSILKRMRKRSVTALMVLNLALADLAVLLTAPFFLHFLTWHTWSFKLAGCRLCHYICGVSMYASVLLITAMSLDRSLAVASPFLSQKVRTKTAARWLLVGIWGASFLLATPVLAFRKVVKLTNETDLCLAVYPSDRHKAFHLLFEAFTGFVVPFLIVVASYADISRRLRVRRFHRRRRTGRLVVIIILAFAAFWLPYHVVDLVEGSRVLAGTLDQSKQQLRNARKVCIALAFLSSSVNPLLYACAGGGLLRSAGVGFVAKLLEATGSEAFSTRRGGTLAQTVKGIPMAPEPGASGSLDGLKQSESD

Row | Structure (SMILES) | inhibition of human cytosolic PLA2 [1] | Ki [2] [nM] | inhibition of human synovial PLA2 [3]
1 | CCCc1c(OCCCOc2cc(O)c(-c3ccccc3)cc2CC)cccc1OC(C)C(=O)O (centres unmarked) [Example 56, 2-[3-[3-[(5-Ethyl-2-hydroxy[1,1'-biphenyl]-4-yl)oxy]propoxy]-2-propylphenoxy]propanoic acid] | in vitro inhibitors | 9.33 | in vitro inhibitors
2 | CCCc1c(OCCCOc2cc(O)c(-c3ccc(F)cc3)cc2CC)ccc2c1OC(C(=O)O)CC2 (centres unmarked) [Example 55, 8-Propyl-7-[3-[4-(4-fluorophenyl)-2-ethyl-5-hydroxyphenoxy]propoxy]-3,4-dihydro-2H-1-benzopyran-2-carboxylic acid] | in vitro inhibitors | 2.95 | in vitro inhibitors
3 | CCCc1c(OCCCOc2cc(O)c(-c3ccc(F)cc3)cc2CC)cccc1Oc1cccc(F)c1C(=O)O [Example 70, 2-Fluoro-6-[2-propyl-3-[3-[2-ethyl-5-hydroxy-4-(4-fluorophenyl)phenoxy]propoxy]phenoxy]benzoic acid disodium salt hydrate] |  | 8.13 | 
4 | CCc1cc(-c2ccccc2)c(O)cc1OCCCCCC(C)(C)c1nn[nH]n1.[Na] | in vitro inhibitors |  | in vitro inhibitors
5 | CCc1cc(-c2ccc(F)cc2)c(O)cc1OCCCOc1cccc(Oc2ccc(C(=O)O)cc2)c1CCC(=O)O [Example 25, 3-(2-(3-(2-Ethyl-4-(4-fluorophenyl)-5-hydroxyphenoxy)propoxy)-6-(4-carboxyphenoxy)phenyl)propionic acid] |  | 0.138 | 
6 | CCc1cc(-c2ccc(F)cc2)c(O)cc1OCCCOc1cccc(CCC(=O)O)c1 [Example 92, 3-(3-{3-[2-Ethyl-4-(4-fluorophenyl)-5-hydroxyphenyloxy]propoxy}phenyl)propanoic acid] |  | 8.32 | 
7 | CCc1cc(-c2ccccc2)c(O)cc1OCCCOc1ccc2c(=O)c3ccccc3oc2c1CCC(=O)O [Example 64, 3-[4-[3-[3-(2-Ethyl-5-hydroxy-4-phenylphenoxy)propoxy]-9-oxo-9H-xanthene]]propanoicacid sodium salt hemihydrate] |  | 14.1 | 
8 | CCc1cc(-c2ccccc2)c(O)cc1OCCCOc1ccc2c(c1CCC(=O)O)CCC(CC(=O)O)C2=O (centres unmarked) [Example 50, 3-(5-(6-(4-Phenyl-5-hydroxy-2-ethylphenoxy)propoxy)-2-carboxymethyl-1,2,3,4-tetrahydronaphthalen-1(2H)-one)propanoic acid] |  | 0.851 | 
9 | CCCc1c(OCCCOc2cc(O)c(-c3ccc(F)cc3)cc2CC)cccc1S(=O)(=O)c1ccccc1C(=O)O [Example 82, 2-[2-Propyl-3-[3-[2-ethyl-4-(4-fluorophenyl)-5-hydroxyphenoxy]propoxy]phenylsulfonyl]benzoic acid hydrate] |  | 10.2 | 
10 | CCc1cc(-c2ccccc2)c(O)cc1OCCCOc1cc(-c2ccccc2)ccc1CCC(=O)O [Example 62, 3-[3-(2-Ethyl-5-hydroxy-4-phenylphenoxy)propoxy][1,1'-biphenyl]-4-propanoicacid disodium salt monohydrate] |  | 57.5 | 
11 | CCc1cc(-c2ccc(F)cc2)c(O)cc1OCCCOc1ccccc1C(C)(C)CC(=O)O [Example 27, 3,3-Dimethyl-3-(2-(3-(2-ethyl-4-(4-fluorophenyl)-5-hydroxyphenoxy)propoxy)phenyl)propionic acid] |  | 2.29 | 
12 | CCc1cc(-c2ccc(F)cc2)c(O)cc1OCCCOc1cccc(OC)c1CCC(=O)O [Example 6, 3-(2-(3-(2-Ethyl-4-(4-fluorophenyl)-5-hydroxyphenoxy)propoxy)-6-methoxyphenyl)propionic acid] |  | 5.01 | 
13 | CCCc1c(OCCCCCOc2cc(O)c(-c3ccc(F)cc3)cc2CC)cccc1Oc1ccccc1C(=O)O [Example 72, 2-[2-Propyl-3-[5-[2-ethyl-5-hydroxy-4-(4-fluorophenyl)phenoxy]pentoxy]phenoxy]benzoic acid] |  | 6.61 | 
14 | CCc1cc(-c2ccccc2)c(O)cc1OCCCOc1ccc2oc3ccccc3c2c1CCC(=O)O [Example 59, 3-[2-[3-[(5-Ethyl-2-hydroxy[1,1'-biphenyl]-4-yl)oxy]propoxy]-1-dibenzofuran]propanoic acid disodium salt] |  | 51.3 | 
15 | CCCCCC(C)(CCCCCOc1cc(O)c(-c2ccc(F)cc2)cc1CC)c1nnn[nH]1 (centres unmarked) [Example 17, 6-Methyl-6-(1H-tetrazol-5-yl)-11-(2-ethyl-4-(4-fluorophenyl)-5-hydroxyphenoxy)undecane] |  | 53.7 | 
16 | CCc1cc(-c2ccc(F)cc2)c(O)cc1OCCCOc1ccc(C#CCCC(=O)O)cc1CCC(=O)O [Example 83, 5-[3-[2-(1-Carboxy)ethyl]-4-[3-[2-ethyl-4-(4-fluorophenyl)-5-hydroxyphenoxy]propoxy]phenyl]-4-pentynoic acid disodium salt 0.4 hydrate] |  | 0.0661 | 
17 | CCCc1c(OCCCCOc2cc(O)c(-c3ccc(F)cc3)cc2CC)cccc1Oc1ccccc1C(=O)O [Example 73, 2-[2-Propyl-3-[4-[2-ethyl-5-hydroxy-4-(4-fluorophenyl)phenoxy]butoxy]phenoxy]benzoic acid sesquihydrate] |  | 17.8 | 
18 | CCc1cc(-c2ccc(F)cc2)c(O)cc1OCCC=Cc1ccccc1CCC(=O)O [Example 9, 3-(2-(4-(2-Ethyl-4-(4-fluorophenyl)-5-hydroxyphenoxy)-(1-butenyl))phenyl)propionic acid] |  | 5.13 | 
19 | CCc1cc(-c2ccc(F)cc2)c(O)cc1OCCCOc1ccccc1CCC(=O)O [Example 4, 3-(2-(3-(2-Ethyl-4-(4-fluorophenyl)-5-hydroxyphenoxy)propoxy)phenyl)propionic acid] |  | 3.63 | 
20 | CCCCc1cc(-c2ccc(F)cc2)c(O)cc1OCCCOc1ccccc1CCC(=O)O [Example 21, 3-(2-(3-(2-Butyl-4-(4-fluorophenyl)-5-hydroxyphenoxy)propoxy)phenyl)propionic acid] |  | 47.9 | 
21 | CCc1cc(-c2ccc(F)cc2)c(O)cc1OCCCOc1ccccc1CCc1nnn[nH]1 [Example 89, 5-(2-(2-(3-(2-Ethyl-4-(4-fluorophenyl)-5-hydroxyphenoxy)propoxy)phenyl)ethyl)-1H-tetrazole] |  | 14.1 | 
